Source: patent EP4667463A1, “DOMIDE MOLECULAR GLUE DERIVATIVE AND USE THEREOF” (CSPC Megalith Biopharmaceutical Co., Ltd., priority 2023, dated 2024)

System: HL-60
Assay: In vitro anti-tumor activity of molecular glue compounds, CellTiter-Lumi cell viability assay
Type: cell-based
Conditions: Homo sapiens; HL-60 cells, 96 h incubation; read-out: Cell inhibitory activity (IC50 values) HL-60
Description: (§1) Different tumor cells were all commercially available and used for evaluating the anti-tumor inhibitory activity of the compounds of the present disclosure. Various tumor cells were cultured until the cell confluency reached 80%-90%, with cell viability above 90% as determined by trypan blue exclusion. Then, the cells were plated. Specifically, after cell density optimization, 100 µL of each of the cell suspensions of HL-60 and SK-BR-3 cells (cell density: 3000 cells/well), Romas cells (cell density: 6000 cells/well), NCI-H929 cells (cell density: 4000 cells/well), and NCI-H82 cells (cell density: 5000 cells/well) was plated in a BeyoGold™ ultra-low attachment black clear-bottom 96-well plate (Cat. No.: FULA965-24pcs), and the plate was incubated overnight. The next day, after the adherent cells were adhered to the wall and suspension cells requiring aggregation were aggregated, 50 µL of culture medium was aspirated from each well of the 96-well plate. Then, the compounds diluted with the corresponding culture media were added. Specifically, the compounds were serially diluted at a 5-fold gradient starting from the highest concentration of 1 µM, with a final DMSO concentration of 1%o, and the test compounds were then added to the cell culture plate. The plate was incubated in an incubator at 37 °C with 5% carbon dioxide for 96 h. Before measurement, the CellTiter-Lumi™ luminescent cell viability assay reagent was equilibrated to room temperature in the dark. Then, 50 µL of the CellTiter-Lumi™ (Cat. No.: C0065XL) cell viability assay reagent was added to each well of the 96-well plate. The plate was shaken in the dark on a shaker at 300 rpm for 10 min to ensure complete cell lysis. After the reaction was completed, the luminescence was measured on a multi-mode microplate reader. The cell inhibition rate was determined according to the luminescence. Then, a cell viability curve was generated by Graphpad Prism 8.0, and the IC50 values were calculated. The compounds of the present disclosure were tested for activity by the method described above. Table 1. Cell inhibitory activity (IC50 values)

`O=C1CCC(N2Cc3cc(CNC(=O)Nc4ccc(CCCOC5CNCC6CCCCC65)c(Cl)c4)ccc3C2=O)C(=O)N1` (centres unmarked) [Compound B70] and `O=C1CCC(N2Cc3cc(CNC(=O)Nc4ccc(CCCOC5CCNC5)c(Cl)c4)ccc3C2=O)C(=O)N1` (centres unmarked) [Compound B64] cannot be ordered by IC50: under 10 nM for the first, under 10 nM for the second.

`O=C1CCC(N2Cc3cc(CNC(=O)Nc4ccc(COC5CCCNC5)c(Cl)c4)ccc3C2=O)C(=O)N1` (centres unmarked) [Compound B7] and `O=C1CCC(N2Cc3cc(CNC(=O)Nc4ccc(COCCCC5CCCNC5)c(Cl)c4)ccc3C2=O)C(=O)N1` (centres unmarked) [Compound B10] fall in the same range of IC50: 10 to 50 nM for the first, 10 to 50 nM for the second.

`CNC1COCC(OCCc2ccc(NC(=O)NCc3ccc4c(c3)CN(C3CCC(=O)NC3=O)C4=O)cc2Cl)C1` (centres unmarked) [Compound B44] and `O=C1CCC(N2Cc3cc(CNC(=O)Nc4ccc(CCOCCNC5CCOCC5)c(Cl)c4)ccc3C2=O)C(=O)N1` (centres unmarked) [Compound B48] cannot be ordered by IC50: under 10 nM for the first, under 10 nM for the second.

`O=C1CCC(N2Cc3cc(CNC(=O)Nc4ccc(CCOCC5CNCCO5)c(Cl)c4)ccc3C2=O)C(=O)N1` (centres unmarked) [Compound B53] showed an IC50 of under 10 nM.

System: NCI-H82
Assay: as above
Type: cell-based
Conditions: Homo sapiens; NCI-H82 cells, 96 h incubation; read-out: Cell inhibitory activity (IC50 values) NCI-H82
Description: as §1

`O=C1CCC(N2Cc3cc(CNC(=O)Nc4ccc(CCCOC5CNCC6CCCCC65)c(Cl)c4)ccc3C2=O)C(=O)N1` (centres unmarked) [Compound B70] and `O=C1CCC(N2Cc3cc(CNC(=O)Nc4ccc(CCCOC5CCNC5)c(Cl)c4)ccc3C2=O)C(=O)N1` (centres unmarked) [Compound B64] fall in the same range of IC50: 10 to 50 nM for the first, 10 to 50 nM for the second.

First: O=C1CCC(N2Cc3cc(CNC(=O)Nc4ccc(COC5CCCNC5)c(Cl)c4)ccc3C2=O)C(=O)N1 (centres unmarked) [Compound B7]
Second: O=C1CCC(N2Cc3cc(CNC(=O)Nc4ccc(COCCCC5CCCNC5)c(Cl)c4)ccc3C2=O)C(=O)N1 (centres unmarked) [Compound B10]
The IC50 of the first is lower: 10 to 50 nM for the first, over 100 nM for the second.

First: CNC1COCC(OCCc2ccc(NC(=O)NCc3ccc4c(c3)CN(C3CCC(=O)NC3=O)C4=O)cc2Cl)C1 (centres unmarked) [Compound B44]
Second: O=C1CCC(N2Cc3cc(CNC(=O)Nc4ccc(CCOCCNC5CCOCC5)c(Cl)c4)ccc3C2=O)C(=O)N1 (centres unmarked) [Compound B48]
The IC50 of the first is lower: 10 to 50 nM for the first, over 100 nM for the second.

`O=C1CCC(N2Cc3cc(CNC(=O)Nc4ccc(CCOCC5CNCCO5)c(Cl)c4)ccc3C2=O)C(=O)N1` (centres unmarked) [Compound B53] was tested, and the IC50 was 10 to 50 nM.

System: NCI-H929
Assay: as above
Type: cell-based
Conditions: Homo sapiens; NCI-H929 cells, 96 h incubation; read-out: Cell inhibitory activity (IC50 values) NCI-H929
Description: as §1

`O=C1CCC(N2Cc3cc(CNC(=O)Nc4ccc(CCCOC5CNCC6CCCCC65)c(Cl)c4)ccc3C2=O)C(=O)N1` (centres unmarked) [Compound B70] and `O=C1CCC(N2Cc3cc(CNC(=O)Nc4ccc(CCCOC5CCNC5)c(Cl)c4)ccc3C2=O)C(=O)N1` (centres unmarked) [Compound B64] cannot be ordered by IC50: under 10 nM for the first, under 10 nM for the second.

Compared with `O=C1CCC(N2Cc3cc(CNC(=O)Nc4ccc(COC5CCCNC5)c(Cl)c4)ccc3C2=O)C(=O)N1` (centres unmarked) [Compound B7], `O=C1CCC(N2Cc3cc(CNC(=O)Nc4ccc(COCCCC5CCCNC5)c(Cl)c4)ccc3C2=O)C(=O)N1` (centres unmarked) [Compound B10] is lower in IC50: 10 to 50 nM for the first, under 10 nM for the second. The second is the more potent here.

First: CNC1COCC(OCCc2ccc(NC(=O)NCc3ccc4c(c3)CN(C3CCC(=O)NC3=O)C4=O)cc2Cl)C1 (centres unmarked) [Compound B44]
Second: O=C1CCC(N2Cc3cc(CNC(=O)Nc4ccc(CCOCCNC5CCOCC5)c(Cl)c4)ccc3C2=O)C(=O)N1 (centres unmarked) [Compound B48]
The IC50 of the first is lower: under 10 nM for the first, 10 to 50 nM for the second.

In the case of `O=C1CCC(N2Cc3cc(CNC(=O)Nc4ccc(CCOCC5CNCCO5)c(Cl)c4)ccc3C2=O)C(=O)N1` (centres unmarked) [Compound B53], the IC50 is reported as under 10 nM.

System: Romas
Assay: as above
Type: cell-based
Conditions: Romas cells, 96 h incubation; read-out: Cell inhibitory activity (IC50 values) Romas
Description: as §1

Compared with `O=C1CCC(N2Cc3cc(CNC(=O)Nc4ccc(CCCOC5CNCC6CCCCC65)c(Cl)c4)ccc3C2=O)C(=O)N1` (centres unmarked) [Compound B70], `O=C1CCC(N2Cc3cc(CNC(=O)Nc4ccc(CCCOC5CCNC5)c(Cl)c4)ccc3C2=O)C(=O)N1` (centres unmarked) [Compound B64] is lower in IC50: 10 to 50 nM for the first, under 10 nM for the second.

`O=C1CCC(N2Cc3cc(CNC(=O)Nc4ccc(COC5CCCNC5)c(Cl)c4)ccc3C2=O)C(=O)N1` (centres unmarked) [Compound B7] and `O=C1CCC(N2Cc3cc(CNC(=O)Nc4ccc(COCCCC5CCCNC5)c(Cl)c4)ccc3C2=O)C(=O)N1` (centres unmarked) [Compound B10] fall in the same range of IC50: 10 to 50 nM for the first, 10 to 50 nM for the second.

First: CNC1COCC(OCCc2ccc(NC(=O)NCc3ccc4c(c3)CN(C3CCC(=O)NC3=O)C4=O)cc2Cl)C1 (centres unmarked) [Compound B44]
Second: O=C1CCC(N2Cc3cc(CNC(=O)Nc4ccc(CCOCCNC5CCOCC5)c(Cl)c4)ccc3C2=O)C(=O)N1 (centres unmarked) [Compound B48]
The IC50 of the first is lower: under 10 nM for the first, 50 to 100 nM for the second. The first is the more potent here.

`O=C1CCC(N2Cc3cc(CNC(=O)Nc4ccc(CCOCC5CNCCO5)c(Cl)c4)ccc3C2=O)C(=O)N1` (centres unmarked) [Compound B53] gave an IC50 of under 10 nM.

System: SK-BR-3
Assay: as above
Type: cell-based
Conditions: Homo sapiens; SK-BR-3 cells, 96 h incubation; read-out: Cell inhibitory activity (IC50 values) SK-BR-3
Description: as §1

First: O=C1CCC(N2Cc3cc(CNC(=O)Nc4ccc(CCCOC5CNCC6CCCCC65)c(Cl)c4)ccc3C2=O)C(=O)N1 (centres unmarked) [Compound B70]
Second: O=C1CCC(N2Cc3cc(CNC(=O)Nc4ccc(CCCOC5CCNC5)c(Cl)c4)ccc3C2=O)C(=O)N1 (centres unmarked) [Compound B64]
The IC50 of the first is higher: 10 to 50 nM for the first, under 10 nM for the second. The second is the more potent here.

`O=C1CCC(N2Cc3cc(CNC(=O)Nc4ccc(COC5CCCNC5)c(Cl)c4)ccc3C2=O)C(=O)N1` (centres unmarked) [Compound B7] and `O=C1CCC(N2Cc3cc(CNC(=O)Nc4ccc(COCCCC5CCCNC5)c(Cl)c4)ccc3C2=O)C(=O)N1` (centres unmarked) [Compound B10] fall in the same range of IC50: 10 to 50 nM for the first, 10 to 50 nM for the second.

Compared with `CNC1COCC(OCCc2ccc(NC(=O)NCc3ccc4c(c3)CN(C3CCC(=O)NC3=O)C4=O)cc2Cl)C1` (centres unmarked) [Compound B44], `O=C1CCC(N2Cc3cc(CNC(=O)Nc4ccc(CCOCCNC5CCOCC5)c(Cl)c4)ccc3C2=O)C(=O)N1` (centres unmarked) [Compound B48] is higher in IC50: under 10 nM for the first, 50 to 100 nM for the second. The first is the more potent here.

With `O=C1CCC(N2Cc3cc(CNC(=O)Nc4ccc(CCOCC5CNCCO5)c(Cl)c4)ccc3C2=O)C(=O)N1` (centres unmarked) [Compound B53] the IC50 was under 10 nM.
